Measured values: patent publication US8080423B2, “Reagent containing protease reaction promoter and/or colorant stabilizer” (Asahi Kasei Pharma Corporation, priority 2004, dated 2011)

Tests used:
Format in all cases: physicochemical
[1] = Screening of stabilizer for colorant, MBTH-TOOS (Example 13); conditions: MBTH-TOOS, 37° C.; for blank (distilled water) change in absorbance: 570 nm, additives at conc. (1%; IDA 1 mM; Zn, Al 0.1 mM; ferrocyanide 0.01 mM; sorbitol 5%; DMSO 10%)
[2] = Screening of stabilizer for colorant, overall statements (Example 13); conditions: Tables 2-1 and 2-2
Description: (§1) Tween-20 (1%), Brij35 (1%), Triton X-100 (1%), deoxycholic acid (1%), imino-diacetic acid (IDA; 1 mM), ZnSO4 (0.1 mM), AlCl3 (0.1 mM), potassium ferrocyanate (0.01 mM), sorbitol (5%), glucose (5%), sodium nitrite (2 mM), dimethylsulfoxide (DMSO; 10%) (those substances are manufactured by Wako Pure Chemical Industries, Inc.), 2-hydroxypropyl-β-cyclodextrin (2HP β CD; 0.5%, 2%, 5%) and methyl-β-cyclodextrin (M β CD; 0.5%, 2%, 5%) (those substances are manufactured by Nihon Shokuhin Kako Co., Ltd.).
(§2) 500 μl of the R-1 reagent and 500 μl of the R-2 which had been incubated to 37° C. were mixed. The mixture was incubated to 37° C. for 2 minutes, and absorbance thereof (A0) was measured. The mixture was added with 10 μl of 500 μM hydrogen peroxide or distilled water. The whole was incubated to 37° C., and absorbance exactly 5 minutes after the addition of hydrogen peroxide (A1) was measured, to calculate a change in absorbance ΔA (A1-A0). The absorbance was measured using a wavelength of 750 nm when DA64 was used as the colorant, a wavelength of 660 nm when DA67 was used as the colorant, and a wavelength of 570 nm when 4-AA-TOOS was used as the colorant.
(§3) Immediately after the preparation of the reagent, the reagent was preserved at 37° C. for 2 days and 9 days, and measurement of sensitivity of a blank which was distilled water and of hydrogen peroxide was performed.

[3] = Screening of stabilizer for colorant, DA64 (Example 13); conditions: 37° C.; for blank (distilled water) change in absorbance: DA-64, 750 nm, additives at conc. (1%; IDA 1 mM; Zn, Al 0.1 mM; ferrocyanide 0.01 mM; sorbitol 5%; DMSO 10%); for change in absorbance when 500 μM of hydrogen peroxide was measured: DA-64
Description: (§4) The following substances were used as test samples. Note that concentrations described in parentheses each represent a final concentration of the substance in the reagent R-1.
as §1, §2, §3

[4] = Screening of stabilizer for colorant, DA67 (Example 13); conditions: 37° C.; for blank (distilled water) change in absorbance: DA-67, 660 nm; for change in absorbance when 500 μM of hydrogen peroxide was measured: DA-67
Description: as §4, §1, §2, §3

[5] = 0 days, additives at conc. (1%; IDA 1 mM; Zn, Al 0.1 mM; ferrocyanide 0.01 mM; sorbitol 5%; DMSO 10%)
[6] = 2 days, additives at conc. (1%; IDA 1 mM; Zn, Al 0.1 mM; ferrocyanide 0.01 mM; sorbitol 5%; DMSO 10%)
[7] = 9 days, additives at b284 conc. (Zn, Al 0.1 mM; ferrocyanide 0.01 mM)

Substance | blank (distilled water) change in absorbance ([1]; 0 days) [Abs] | blank (distilled water) change in absorbance ([1]; 2 days) [Abs] | change in absorbance when 500 μM of hydrogen peroxide was measured ([1]; 0 days, cyclodextrin 0.5%) | change in absorbance when 500 μM of hydrogen peroxide was measured ([1]; 0 days, cyclodextrin 2.0%) | change in absorbance when 500 μM of hydrogen peroxide was measured ([1]; 0 days, cyclodextrin 5.0%) | change in absorbance when 500 μM of hydrogen peroxide was measured ([1]; 2 days, cyclodextrin 0.5%) | change in absorbance when 500 μM of hydrogen peroxide was measured ([1]; 2 days, cyclodextrin 2.0%) | change in absorbance when 500 μM of hydrogen peroxide was measured ([1]; 2 days, cyclodextrin 5.0%) | effect on the blank during preservation (in words) [2] | blank (distilled water) change in absorbance ([3]; 0 days) [Abs] | blank (distilled water) change in absorbance ([3]; 2 days) [Abs] | blank (distilled water) change in absorbance ([3]; 9 days) [Abs] | change in absorbance when 500 μM of hydrogen peroxide was measured ([3]; 0 days, cyclodextrin 0.5%) | change in absorbance when 500 μM of hydrogen peroxide was measured ([3]; 0 days, cyclodextrin 2.0%) | change in absorbance when 500 μM of hydrogen peroxide was measured ([3]; 0 days, cyclodextrin 5.0%) | change in absorbance when 500 μM of hydrogen peroxide was measured ([3]; 2 days, cyclodextrin 0.5%) | change in absorbance when 500 μM of hydrogen peroxide was measured ([3]; 2 days, cyclodextrin 2.0%) | change in absorbance when 500 μM of hydrogen peroxide was measured ([3]; 2 days, cyclodextrin 5.0%) | change in absorbance when 500 μM of hydrogen peroxide was measured ([3]; 9 days, cyclodextrin 0.5%) | change in absorbance when 500 μM of hydrogen peroxide was measured ([3]; 9 days, cyclodextrin 2.0%) | also measured
2-hydroxypropyl-β-cyclodextrin [2HPβCD] | 0.166 | 0.815 | 0.199 | 0.200 | 0.203 | 0.145 | 0.155 | 0.159 | suppressing effects on the blank | −0.007 | 0.007 | 0.010 | 0.375 | 0.386 | 0.385 | 0.315 | 0.322 | 0.326 | 0.251 | 0.269 | change in absorbance when 500 μM of hydrogen peroxide was measured ([3]; 9 days, cyclodextrin 5.0%): 0.271; blank (distilled water) change in absorbance [4, 5]: 0.119 Abs; blank (distilled water) change in absorbance [4, 6]: 0.762 Abs; blank (distilled water) change in absorbance [4, 7]: 1.822 Abs; change in absorbance when 500 μM of hydrogen peroxide was measured ([4]; 0 days, cyclodextrin 0.5%): 0.531; change in absorbance when 500 μM of hydrogen peroxide was measured ([4]; 0 days, cyclodextrin 2.0%): 0.522; change in absorbance when 500 μM of hydrogen peroxide was measured ([4]; 0 days, cyclodextrin 5.0%): 0.528; change in absorbance when 500 μM of hydrogen peroxide was measured ([4]; 2 days, cyclodextrin 0.5%): 0.301; change in absorbance when 500 μM of hydrogen peroxide was measured ([4]; 2 days, cyclodextrin 2.0%): 0.306; change in absorbance when 500 μM of hydrogen peroxide was measured ([4]; 2 days, cyclodextrin 5.0%): 0.309; change in absorbance when 500 μM of hydrogen peroxide was measured ([4]; 9 days, cyclodextrin 0.5%): 0.277; change in absorbance when 500 μM of hydrogen peroxide was measured ([4]; 9 days, cyclodextrin 2.0%): 0.279; change in absorbance when 500 μM of hydrogen peroxide was measured ([4]; 9 days, cyclodextrin 5.0%): 0.281
methyl-β-cyclodextrin [MβCD] | 0.115 | 0.757 | 0.175 | 0.18 | 0.181 | 0.135 | 0.136 | 0.145 | suppressing effects on the blank | −0.01 | 0.005 | 0.006 | 0.371 | 0.376 | 0.365 | 0.302 | 0.309 | 0.315 | 0.266 | 0.271 | change in absorbance when 500 μM of hydrogen peroxide was measured ([3]; 9 days, cyclodextrin 5.0%): 0.273; blank (distilled water) change in absorbance [4, 5]: 0.133 Abs; blank (distilled water) change in absorbance [4, 6]: 0.657 Abs; blank (distilled water) change in absorbance [4, 7]: 1.430 Abs; change in absorbance when 500 μM of hydrogen peroxide was measured ([4]; 0 days, cyclodextrin 0.5%): 0.516; change in absorbance when 500 μM of hydrogen peroxide was measured ([4]; 0 days, cyclodextrin 2.0%): 0.519; change in absorbance when 500 μM of hydrogen peroxide was measured ([4]; 0 days, cyclodextrin 5.0%): 0.515; change in absorbance when 500 μM of hydrogen peroxide was measured ([4]; 2 days, cyclodextrin 0.5%): 0.355; change in absorbance when 500 μM of hydrogen peroxide was measured ([4]; 2 days, cyclodextrin 2.0%): 0.361; change in absorbance when 500 μM of hydrogen peroxide was measured ([4]; 2 days, cyclodextrin 5.0%): 0.364; change in absorbance when 500 μM of hydrogen peroxide was measured ([4]; 9 days, cyclodextrin 0.5%): 0.306; change in absorbance when 500 μM of hydrogen peroxide was measured ([4]; 9 days, cyclodextrin 2.0%): 0.311; change in absorbance when 500 μM of hydrogen peroxide was measured ([4]; 9 days, cyclodextrin 5.0%): 0.323
